Measured values: article PMC4466645 (Oncotarget, 2015)

Key:
[1] = parameters: method as in PMID 23693152; conditions: cited from earlier work
[2] = parameters: method as in PMID 23693152; conditions: cited from earlier work; remark: listed apart in the source
Mer = Mer (Homo sapiens, UniProt Q12866); assay: Microfluidic capillary electrophoresis (MCE) enzymatic assay, Mer; assay type: biochemical; conditions: ATP at Km
[3] = test system: AML cell lines expressing Mer or Flt3 internal tandem duplication (ITD); assay: Apoptosis by flow cytometry, AML cell lines expressing Mer or Flt3-ITD (all lines together)
Method: (§2) To assess apoptosis, AML cell lines were cultured at 3 × 10^5 cells, and 1 × 10^6 AML patient blasts were co-cultured with 3.5 × 10^5 HS27 cells per condition in 24 well plates, and treated for 72 hours. […] Flow cytometry data were analyzed using Modfit Cell Cycle Analysis software (Verity Software House). In replating assays, cells were similarly plated and treated, then harvested cells were washed twice, and 1.5 × 10^4 viable cells/ml were cultured in cRPMI for six days. Six days after replating, viable myeloblast count was determined by trypan blue exclusion using a Cedex XS Analyzer (Roche).

Flt3 = Flt3 (Homo sapiens, UniProt P36888); assay: Microfluidic capillary electrophoresis (MCE) enzymatic assay, Flt3; assay type: biochemical; conditions: ATP at Km
Chain of Flt3 (P36888 27-993): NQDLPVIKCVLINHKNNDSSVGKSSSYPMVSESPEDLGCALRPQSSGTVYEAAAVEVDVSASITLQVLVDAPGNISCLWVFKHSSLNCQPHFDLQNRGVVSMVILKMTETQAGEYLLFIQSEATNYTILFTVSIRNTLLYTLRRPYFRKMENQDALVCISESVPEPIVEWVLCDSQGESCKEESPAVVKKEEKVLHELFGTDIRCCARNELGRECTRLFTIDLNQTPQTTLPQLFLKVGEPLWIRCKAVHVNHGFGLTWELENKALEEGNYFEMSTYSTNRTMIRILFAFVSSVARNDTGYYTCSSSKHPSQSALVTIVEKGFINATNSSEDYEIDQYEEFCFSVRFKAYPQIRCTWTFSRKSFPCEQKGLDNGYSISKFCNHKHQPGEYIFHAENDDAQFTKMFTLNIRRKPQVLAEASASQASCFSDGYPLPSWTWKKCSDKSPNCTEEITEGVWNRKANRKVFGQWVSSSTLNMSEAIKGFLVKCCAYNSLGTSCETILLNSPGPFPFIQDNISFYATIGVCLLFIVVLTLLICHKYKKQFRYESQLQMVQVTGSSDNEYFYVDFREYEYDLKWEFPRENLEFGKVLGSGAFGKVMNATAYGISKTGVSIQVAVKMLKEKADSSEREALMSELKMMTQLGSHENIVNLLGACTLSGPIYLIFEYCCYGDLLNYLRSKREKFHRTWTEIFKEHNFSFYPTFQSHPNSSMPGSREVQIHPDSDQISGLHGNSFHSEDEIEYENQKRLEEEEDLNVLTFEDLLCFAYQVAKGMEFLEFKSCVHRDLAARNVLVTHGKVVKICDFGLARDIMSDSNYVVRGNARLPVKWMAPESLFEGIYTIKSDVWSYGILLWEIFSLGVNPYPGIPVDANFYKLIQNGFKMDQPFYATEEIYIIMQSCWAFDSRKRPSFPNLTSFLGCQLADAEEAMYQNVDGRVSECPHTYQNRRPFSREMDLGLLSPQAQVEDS

TRKC = TRKC (Homo sapiens, UniProt Q16288); assay: Protein kinase profiling panel (Carna Biosciences), TRKC; conditions: read-out: Percent Inhibition at 46 nM, TRKC
Chain of TRKC (Q16288 32-839): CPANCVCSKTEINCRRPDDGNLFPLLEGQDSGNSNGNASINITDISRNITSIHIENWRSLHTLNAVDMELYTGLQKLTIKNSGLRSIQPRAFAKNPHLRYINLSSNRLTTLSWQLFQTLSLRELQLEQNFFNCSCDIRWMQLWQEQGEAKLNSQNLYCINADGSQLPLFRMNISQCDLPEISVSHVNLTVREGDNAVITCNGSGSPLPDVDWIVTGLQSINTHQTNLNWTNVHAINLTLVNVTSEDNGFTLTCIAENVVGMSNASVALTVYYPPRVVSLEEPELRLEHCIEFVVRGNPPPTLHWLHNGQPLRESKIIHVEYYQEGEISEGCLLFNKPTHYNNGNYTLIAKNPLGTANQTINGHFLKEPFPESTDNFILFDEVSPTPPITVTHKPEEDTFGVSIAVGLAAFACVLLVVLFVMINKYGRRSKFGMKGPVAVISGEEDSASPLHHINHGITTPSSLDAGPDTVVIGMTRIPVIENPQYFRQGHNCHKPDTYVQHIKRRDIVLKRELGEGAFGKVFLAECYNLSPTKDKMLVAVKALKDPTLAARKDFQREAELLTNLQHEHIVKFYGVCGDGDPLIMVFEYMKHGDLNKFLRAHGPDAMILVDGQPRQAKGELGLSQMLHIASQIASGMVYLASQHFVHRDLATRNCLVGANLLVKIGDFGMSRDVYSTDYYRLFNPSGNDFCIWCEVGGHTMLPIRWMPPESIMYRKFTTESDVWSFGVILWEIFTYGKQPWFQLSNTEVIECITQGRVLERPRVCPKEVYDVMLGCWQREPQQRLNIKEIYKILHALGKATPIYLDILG

Kasumi-1 cell line [4] = assay: Apoptosis by flow cytometry (YO-PRO-1 iodide / propidium iodide), Kasumi-1; conditions: Kasumi-1, 300 nM, 72 hour; vehicle 30 ± 7%
Method: as §2

Kasumi-1 = assay: Soft agar colony formation assay, Kasumi-1; assay type: cell-based; conditions: Kasumi-1, 100 nM, 21 days, normalized to vehicle
Method: (§1) Cell lines were plated at a density of 1000 cells/ml in 0.35% agar over 0.5% agar base layer. […] Colonies were grown for 14 (NOMO-1, MV4;11, MOLM-13) or 21 days (Kasumi-1) prior to staining with 1 mg/ml nitrotetrazolium blue (Sigma-Aldrich). Treatment-containing medium was renewed twice weekly. […] Human mononuclear cells were isolated from umbilical cord blood samples using Ficoll-Paque PLUS (GE Healthcare Life Sciences). […] Cell line and patient sample colonies were counted using a GelCount colony counter (Oxford Optronix) and cord blood colonies were manually counted in a blinded, non-biased manner.

[5] = test system: AML cell lines expressing Mer or Flt3 internal tandem duplication (ITD); assay: Colony formation, AML cell lines expressing Mer or Flt3-ITD (all lines together); assay type: cell-based; conditions: compared to treatment with vehicle
Method: Cell lines were plated at a density of 1000 cells/ml in 0.35% agar over 0.5% agar base layer. […] Colonies were grown for 14 (NOMO-1, MV4;11, MOLM-13) or 21 days (Kasumi-1) prior to staining with 1 mg/ml nitrotetrazolium blue (Sigma-Aldrich). Treatment-containing medium was renewed twice weekly. […]. Human mononuclear cells were isolated from umbilical cord blood samples using Ficoll-Paque PLUS (GE Healthcare Life Sciences). […]. Cell line and patient sample colonies were counted using a GelCount colony counter (Oxford Optronix) and cord blood colonies were manually counted in a blinded, non-biased manner.

MOLM-13 = assay: Soft agar colony formation assay, MOLM-13; assay type: cell-based; conditions: MOLM-13, 50 nM, 14 days, normalized to vehicle
Method: as §1

MOLM-13 cell line = assay: Apoptosis by flow cytometry (YO-PRO-1 iodide / propidium iodide), MOLM-13; conditions: MOLM-13, 300 nM, 72 hours; vehicle 8 ± 1%
Method: as §2

[6] = test system: primary AML patient samples; assay: Colony formation in methylcellulose, primary AML patient samples; assay type: cell-based, human
Method: as §1

AML cell lines = assay: Cell cycle analysis (propidium iodide, ModFit) in AML cell lines; conditions: significant at the 300 nM dose, 72 hours
Method: as §2

TrkA [7] = molecular target: T1, TrkA (Homo sapiens, UniProt P04629); assay: Microfluidic capillary electrophoresis (MCE) enzymatic assay, TrkA
T1 sequence (P04629 33-796): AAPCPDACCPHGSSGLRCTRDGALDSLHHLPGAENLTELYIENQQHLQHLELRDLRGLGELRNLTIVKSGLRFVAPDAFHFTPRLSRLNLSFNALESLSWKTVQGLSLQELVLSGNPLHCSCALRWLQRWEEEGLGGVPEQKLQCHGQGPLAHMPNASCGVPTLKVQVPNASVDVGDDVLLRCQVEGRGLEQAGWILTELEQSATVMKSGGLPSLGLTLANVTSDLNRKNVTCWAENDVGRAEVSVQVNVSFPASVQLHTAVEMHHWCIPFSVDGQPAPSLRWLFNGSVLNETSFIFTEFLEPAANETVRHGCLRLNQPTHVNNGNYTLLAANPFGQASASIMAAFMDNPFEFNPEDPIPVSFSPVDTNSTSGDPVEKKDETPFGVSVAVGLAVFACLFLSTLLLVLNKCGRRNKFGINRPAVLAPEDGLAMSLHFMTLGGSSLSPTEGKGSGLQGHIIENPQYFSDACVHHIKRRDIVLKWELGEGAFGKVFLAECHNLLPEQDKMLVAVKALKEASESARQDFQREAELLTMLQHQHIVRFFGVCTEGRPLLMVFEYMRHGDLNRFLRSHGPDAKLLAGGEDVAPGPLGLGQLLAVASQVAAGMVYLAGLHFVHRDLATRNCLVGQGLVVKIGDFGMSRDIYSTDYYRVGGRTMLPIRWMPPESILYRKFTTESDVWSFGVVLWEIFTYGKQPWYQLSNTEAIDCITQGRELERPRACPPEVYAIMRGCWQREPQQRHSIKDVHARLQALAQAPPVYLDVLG

[8] = test system: Erk1/2, Akt and Stat5 phosphorylation; assay: Downstream signaling immunoblot in Flt3-ITD cell lines; assay type: cell-based; conditions: 50 nM, two hour treatment
Method: Whole cell lysates were prepared and proteins were resolved on Tris-Glycine SDS-PAGE gels (Invitrogen) and transferred onto nitrocellulose membranes. Membranes were blocked in tris-buffered saline with 0.1% Tween-20 containing 5% bovine serum albumin (when probing for Flt3) or 5% milk (when probing for all other molecules). For immunoprecipitation assays, cells were plated and treated as above, then treated with pervanadate for 10 minutes prior to cell lysis to stabilize the phosphorylation status. With the use of pervandate, it was not necessary to stimulate cells with exogenous Mer or Flt3 ligands (other than from fetal bovine serum) to detect phosphorylated Mer and Flt3 proteins. Anti-Mer antibody or anti-Flt3 and rec-Protein G-sepharose beads (Invitrogen) were added and lysates were incubated overnight on a rocking platform. Beads were washed and eluted proteins were resolved as above. Immunoprecipitate membranes were probed with an anti-phospho-Mer or anti-phospho-Flt3 antibody. After visualization, membranes were stripped and reprobed for total protein. […]

NOMO-1 = assay: Soft agar colony formation assay, NOMO-1; assay type: cell-based; conditions: NOMO-1, 100 nM, 14 days, normalized to vehicle
Method: as §1

MV4;11 cell line [9] = assay: Replating (rebound growth) assay, MV4;11; conditions: MV4;11, 50 nM for 72 hours then washed, replated at 1.5 × 10^4 viable cells/ml
Method: as §2

MV4;11 = assay: Soft agar colony formation assay, MV4;11; assay type: cell-based; conditions: MV4;11, 50 nM, 14 days, normalized to vehicle
Method: as §1

[10] = test system: normal umbilical cord blood; assay: Colony formation in methylcellulose, normal umbilical cord blood hematopoietic precursors; assay type: cell-based, human
Method: as §1

[11] = test system: Mer-expressing cell lines; assay: Apoptosis by flow cytometry, Mer-expressing cell lines; conditions: 72 hours, range over Mer-expressing cell lines
Method: as §2

TRKB = TRKB (Homo sapiens, UniProt Q16620); assay: Protein kinase profiling panel (Carna Biosciences), TRKB; conditions: read-out: Percent Inhibition at 46 nM, TRKB
Chain of TRKB (Q16620 32-822): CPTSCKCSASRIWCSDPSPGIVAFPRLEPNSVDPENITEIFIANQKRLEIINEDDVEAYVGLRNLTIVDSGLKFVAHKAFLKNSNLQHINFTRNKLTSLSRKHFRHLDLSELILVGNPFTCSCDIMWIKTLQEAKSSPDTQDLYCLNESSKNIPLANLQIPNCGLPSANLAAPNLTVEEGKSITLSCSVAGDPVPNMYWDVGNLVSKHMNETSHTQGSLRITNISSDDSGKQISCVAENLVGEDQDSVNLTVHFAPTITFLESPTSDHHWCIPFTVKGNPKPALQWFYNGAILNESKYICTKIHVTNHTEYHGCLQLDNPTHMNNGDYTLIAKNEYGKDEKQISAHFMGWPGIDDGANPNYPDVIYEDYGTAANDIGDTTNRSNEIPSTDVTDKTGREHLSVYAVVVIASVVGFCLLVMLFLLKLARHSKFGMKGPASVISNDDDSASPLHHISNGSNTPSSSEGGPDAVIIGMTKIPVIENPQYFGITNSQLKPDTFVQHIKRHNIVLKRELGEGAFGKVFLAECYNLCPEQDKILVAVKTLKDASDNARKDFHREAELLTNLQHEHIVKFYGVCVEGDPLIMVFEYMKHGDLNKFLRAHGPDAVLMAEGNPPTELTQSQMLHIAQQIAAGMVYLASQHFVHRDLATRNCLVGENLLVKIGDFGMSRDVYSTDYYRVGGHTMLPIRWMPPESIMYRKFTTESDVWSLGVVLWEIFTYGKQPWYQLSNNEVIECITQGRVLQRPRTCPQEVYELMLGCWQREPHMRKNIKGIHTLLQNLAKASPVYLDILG

Flt3-ITD cell lines = assay: Apoptosis by flow cytometry, Flt3-ITD cell lines; assay type: cell-based; conditions: 72 hours, range over Flt3-ITD cell lines
Method: To assess apoptosis, AML cell lines were cultured at 3 × 10^5 cells, and 1 × 10^6 AML patient blasts were co-cultured with 3.5 × 10^5 HS27 cells per condition in 24 well plates, and treated for 72 hours. Harvested cells were washed, resuspended in PBS containing 1 μM YO-PRO®-1 iodide (Invitrogen) and 1.5 μM propidium iodide (PI) (Invitrogen), and incubated on ice for 15–20 minutes. […] . Flow cytometry data were analyzed using Modfit Cell Cycle Analysis software (Verity Software House). In replating assays, cells were similarly plated and treated, then harvested cells were washed twice, and 1.5 × 10^4 viable cells/ml were cultured in cRPMI for six days. Six days after replating, viable myeloblast count was determined by trypan blue exclusion using a Cedex XS Analyzer (Roche).

[12] = Pharmacokinetics in a murine model; conditions: mouse, in vivo, po
TrkA [13] = molecular target: T1, TrkA; assay: Protein kinase profiling panel (Carna Biosciences), TRKA; conditions: read-out: Percent Inhibition at 46 nM, TRKA
[14] = test system: Erk1/2, Akt and Stat6 phosphorylation; assay: Downstream signaling immunoblot in Mer expressing cell lines; assay type: cell-based; conditions: two hour treatment
Method: Whole cell lysates were prepared and proteins were resolved on Tris-Glycine SDS-PAGE gels (Invitrogen) and transferred onto nitrocellulose membranes. Membranes were blocked in tris-buffered saline with 0.1% Tween-20 containing 5% bovine serum albumin (when probing for Flt3) or 5% milk (when probing for all other molecules). For immunoprecipitation assays, cells were plated and treated as above, then treated with pervanadate for 10 minutes prior to cell lysis to stabilize the phosphorylation status. With the use of pervandate, it was not necessary to stimulate cells with exogenous Mer or Flt3 ligands (other than from fetal bovine serum) to detect phosphorylated Mer and Flt3 proteins. Anti-Mer antibody or anti-Flt3 and rec-Protein G-sepharose beads (Invitrogen) were added and lysates were incubated overnight on a rocking platform. Beads were washed and eluted proteins were resolved as above. Immunoprecipitate membranes were probed with an anti-phospho-Mer or anti-phospho-Flt3 antibody. After visualization, membranes were stripped and reprobed for total protein. The following antibodies were used according to manufacturer recommendations: anti-Mer (ab52968, AbCam); anti-phospho-Mer (Phosphosolutions Inc.); anti-Flt3 (sc-480), anti-Actin (sc-1616), anti-pan-Trk (sc-11), donkey-anti-goat IgG-HRP (sc-2020) (Santa Cruz Biotechnology); anti-phospho-Flt3 (#3461), anti-phospho-Stat6 (Tyr641, #9364), anti-Stat6, (#9362), anti-phospho-Stat5 (Tyr694, #9359), anti-Stat5 (#9358), anti-phospho-AKT (Ser473, #9271L), anti-AKT (#9272), anti-phospho-p44/42-MAPK (ERK1/2, Thr202/Tyr204, #9106), anti-p44/42-MAPK (#9102), anti-PARP (#9542), anti-Caspase-3 (#9665), anti-Tyro-3 (#5585) (Cell Signaling Technology); anti-Axl (AF154, R&D Systems); goat-anti-mouse IgG-HRP, goat-anti-rabbit IgG-HRP (BioRad). Proteins were visualized by horseradish peroxidase chemiluminescence detection (Perkin-Elmer).

[15] = test system: primary AML patient samples; assay: Apoptosis by flow cytometry in primary AML patient samples co-cultured with HS27 stromal cells; assay type: cell-based, human
From the text: Cell lines MV4;11, NOMO-1, KG-1a, NB-4, and HEL were obtained from the German Collection of Microorganisms and Cell Culture (DSMZ); Kasumi-1 and U937 were obtained from the American Type Culture Collection (ATCC); MOLM-13 was a gift from Robert Arceci (Johns Hopkins); HS-27 was a gift from Kathrin Bernt (University of Colorado). AML cell lines were maintained in RPMI medium (HyClone) supplemented with 10% FBS and penicillin/streptomycin (cRPMI). Cell line identities were confirmed using short tandem repeat microsatellite loci analysis. HS-27 stromal cells were maintained in DMEM with 10% FBS and penicillin/streptomycin prior to co-culture. De-identified cord blood samples and primary patient myeloblasts apheresed from peripheral blood were obtained from the University of Colorado after written informed consent in accordance with the Declaration of Helsinki. Experiments conformed to regulatory standards as approved by the Colorado Multiple Institutional Review Board. AML patient samples were maintained as previously described, with HS-27 stromal co-culture for apoptosis and cell cycle experiments.
To assess apoptosis, AML cell lines were cultured at 3 × 10^5 cells, and 1 × 10^6 AML patient blasts were co-cultured with 3.5 × 10^5 HS27 cells per condition in 24 well plates, and treated for 72 hours. Harvested cells were washed, resuspended in PBS containing 1 μM YO-PRO®-1 iodide (Invitrogen) and 1.5 μM propidium iodide (PI) (Invitrogen), and incubated on ice for 15–20 minutes. […] Flow cytometry data were analyzed using Modfit Cell Cycle Analysis software (Verity Software House). In replating assays, cells were similarly plated and treated, then harvested cells were washed twice, and 1.5 × 10^4 viable cells/ml were cultured in cRPMI for six days. Six days after replating, viable myeloblast count was determined by trypan blue exclusion using a Cedex XS Analyzer (Roche).

MV4;11 cell line [16] = assay: Apoptosis by flow cytometry (YO-PRO-1 iodide / propidium iodide), MV4;11; conditions: MV4;11, 300 nM, 72 hours; vehicle 13 ± 3%
Method: as §2

Kasumi-1 cell line [17] = assay: Replating (rebound growth) assay, Kasumi-1; conditions: Kasumi-1, 100 nM for 72 hours then washed, replated at 1.5 × 10^4 viable cells/ml; vehicle 2.0 × 10^5
Method: as §2

Chain of Mer (Q12866 21-999): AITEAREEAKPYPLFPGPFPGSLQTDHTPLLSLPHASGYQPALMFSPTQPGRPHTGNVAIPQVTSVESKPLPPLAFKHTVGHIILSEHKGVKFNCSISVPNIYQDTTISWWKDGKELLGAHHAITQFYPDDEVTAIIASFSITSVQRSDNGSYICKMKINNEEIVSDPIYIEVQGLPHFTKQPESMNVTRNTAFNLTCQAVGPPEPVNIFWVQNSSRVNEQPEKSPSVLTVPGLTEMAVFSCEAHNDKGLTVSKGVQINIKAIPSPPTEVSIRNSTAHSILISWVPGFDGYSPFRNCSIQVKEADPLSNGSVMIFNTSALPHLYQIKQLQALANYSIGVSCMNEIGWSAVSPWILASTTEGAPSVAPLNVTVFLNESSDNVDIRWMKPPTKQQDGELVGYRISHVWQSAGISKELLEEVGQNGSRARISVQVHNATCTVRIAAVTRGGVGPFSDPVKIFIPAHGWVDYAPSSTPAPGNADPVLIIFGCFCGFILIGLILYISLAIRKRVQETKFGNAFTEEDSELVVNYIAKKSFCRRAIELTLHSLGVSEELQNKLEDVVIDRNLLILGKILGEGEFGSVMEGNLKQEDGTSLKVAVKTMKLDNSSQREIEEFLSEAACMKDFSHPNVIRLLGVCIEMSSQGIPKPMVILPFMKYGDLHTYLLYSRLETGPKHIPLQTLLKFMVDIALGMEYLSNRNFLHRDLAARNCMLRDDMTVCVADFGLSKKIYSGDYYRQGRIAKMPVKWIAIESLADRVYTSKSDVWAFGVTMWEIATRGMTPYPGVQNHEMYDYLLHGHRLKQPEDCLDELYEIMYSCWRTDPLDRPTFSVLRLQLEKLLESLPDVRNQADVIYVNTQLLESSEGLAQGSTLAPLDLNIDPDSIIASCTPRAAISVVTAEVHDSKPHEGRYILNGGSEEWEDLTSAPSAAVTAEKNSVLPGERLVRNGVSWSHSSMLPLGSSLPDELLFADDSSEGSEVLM

SMILES: CCCCNc1ncc2c(-c3ccc(S(=O)(=O)N4CCOCC4)cc3)nn(C3CCC(O)CC3)c2n1 (stereo not shown) [UNC1062]
- Solubility (in words) [1]: low solubility
- In vivo pharmacokinetic properties (in words) [2]: poor in vivo pharmacokinetic properties

SMILES: CCCCN(C)c1ncc2c(-c3ccc(F)cc3)nn(C[C@H]3CC[C@H](N)CC3)c2n1 [UNC1653]
- IC50 (Mer): 0.56 µM
- Induction of apoptosis (in words) ([3]; 72 hours, Mer-expressing or Flt3-ITD cell lines): did not induce apoptosis
- IC50 (Flt3): 0.22 µM

SMILES: CCCCNc1ncc2c(-c3ccc(S(=O)(=O)N4CCOCC4)cc3)cn([C@H]3CC[C@H](O)CC3)c2n1 [UNC1666]
- inhibition at 0.046 µM (TRKC): 98%
- Cells apoptotic or dead (Kasumi-1 cell line [4]): 76 ± 8%
- Reduction in colony formation (Kasumi-1): 90 ± 6%
- Reduction of colony formation [5]: greater than 90%
- Reduction in colonies (MOLM-13): 93 ± 6%
- Apoptosis (cells apoptotic or dead) (MOLM-13 cell line): 98 ± 2%
- Induction of apoptosis, % of cells ([3]; maximum over cell lines, compared to vehicle): up to 98%
- Concentrations at which patient-derived myeloblasts are sensitive in methylcellulose cultures ([6]; as low as): 5 to 50 nM
- Colony formation (in words) ([6]; concentrations as low as 50 nM, in all but one sample, 10 days, methylcellulose): near complete abrogation of colony formation
- Cell cycle effect (in words) (AML cell lines): accumulation of cells in G2M phase
- IC50 (TrkA [7]): 0.00057 µM
- Erk1/2, Akt and Stat5 phosphorylation [8]: near complete ablation of phosphorylation
- Reduction in colony formation (NOMO-1): 71 ± 4%
- Viable cell number at Day 6 after replating (MV4;11 cell line [9]; vehicle 10 × 10^5): 2.0 × 10^5 viable cells/ml
- Increase in viable cell number over six days after replating (MV4;11 cell line [9]; vehicle 67-fold): 13 fold
- Reduction in colonies (MV4;11): 61 ± 22%
- Colony formation of normal cord blood hematopoietic precursors (in words) ([10]; 1 μM, methylcellulose, 14 days): trend towards decreased colony formation
- Decrease in colony formation of normal cord blood hematopoietic precursors (in words) ([10]; 10 μM, methylcellulose, 14 days): statistically significant
- Colony forming potential of hematopoietic progenitors in normal cord blood cultures (in words) ([10]; doses as high as 1 μM): did not affect the colony forming potential
- Colony number of normal cord blood hematopoietic precursors (in words) ([10]; doses up to 500 nM, n = 3, methylcellulose, 14 days): no significant reduction in colony number
- Induction of apoptosis, % of cells ([11]; 100 nM): 50–67%
- Induction of apoptosis, % of cells ([11]; 300 nM): 68–76%
- inhibition at 0.046 µM (TRKB): 95%
- Cells apoptotic or dead (Flt3-ITD cell lines; 50 nM): 54–67%
- Cells apoptotic or dead (Flt3-ITD cell lines; 300 nM): 90–98%
- bioavailability [12]: 8%
- inhibition at 0.046 µM (TrkA [13]): 101%
- Erk1/2, Akt and Stat6 phosphorylation ([14]; 50 nM): diminished phosphorylation
- Erk1/2, Akt and Stat6 phosphorylation ([14]; 100 nM): moderate decrease
- Erk1/2, Akt and Stat6 phosphorylation ([14]; 300 nM): more complete inhibition
- Anti-proliferative effects in patient samples (in words) ([15]; 50 nM, co-culture with stromal cells): near complete induction of apoptosis and growth inhibition
- Induction of apoptosis (in words) ([15]; 72 hours, HS27 stromal co-culture): induce apoptosis in all patient samples
- Concentrations at which functional effects (decreased ability to evade apoptosis, decreased colony formation) occurred ([15]; AML patient samples that co-expressed Mer and Flt3): 5 to 100 nM
- Apoptosis (cells apoptotic or dead) (MV4;11 cell line [16]): 90 ± 1%
- Viable cell number at Day 6 after replating (Kasumi-1 cell line [17]): 0.3 × 10^5 cells/ml
